Results published in ChEMBL document CHEMBL1122963, “[3H]Batrachotoxinin A 20 alpha-benzoate binding to voltage-sensitive sodium channels: a rapid and quantitative assay for local anesthetic activity in a variety of drugs” (J Med Chem, 1985).

Experiments:
[1] = target: T1, Sodium channel alpha subunits; brain (Types I, II, III) (Homo sapiens, UniProt P35498+Q99250+Q9NY46); assay: Inhibition of binding of Batrachotoxinin [3H]BTX-B to high affinity sites on voltage dependent sodium channels in a vesicular preparation from guinea pig cerebral cortex; format: tissue-based, Cavia porcellus
[2] = target: T1, Sodium channel alpha subunits; brain (Types I, II, III); conditions: Cavia porcellus; Cerebral cortex; at 10 µM

| Compound | IC50 [1] | inhibition [2] |
| --- | --- | --- |
| COc1ccc(CCN(C)CCCC2(c3ccc(OC)c(OC)c3)S(=O)(=O)CCCS2(=O)=O)cc1OC | 13.5 µM | – |
| CCCC(C(=O)OCC[N+](C)(CC)CC)(c1ccccc1)c1ccccc1.[I-] | 4.2 µM | 72% |
| COc1cccc(OC)c1OCCNCC1=COc2ccccc2O1 | 2.4 µM | 67.7% |
| CC[N+](CC)(CC)CC(=O)Nc1c(C)cccc1C.[Cl-] | 97 µM | 52.4% |
| CC[C@@H]1CN2CC[C@@H]1C[C@H]2[C@H](O)c1ccnc2ccc(OCCC(C)C)cc12 | 0.74 µM | 95.7% |
| C=C(c1ccc(Oc2cccc3ccccc23)cc1)C1COC2(CCCCC2)OO1.Cl (configuration not stated) | 7 µM | 68.3% |
| CC(C)(C)NCC(CO)O/N=C1\c2ccccc2C2C=CC=CC12 (configuration not stated) | 3.7 µM | 72.5% |
| CCCCC1=C(N(C)C)c2cc3c(cc2C1)OCO3 | 12.5 µM | 45% |
| Cl.NCCCCCCNS(=O)(=O)c1cccc2ccccc12 | 22 µM | 33.3% |
| C[N+](C)(C)CCOC(c1ccccc1)c1ccccc1.[I-] | 64 µM | 69% |
| CCCC[N+]1(C)CCCCC1C(=O)Nc1c(C)cccc1C.[I-] (configuration not stated) | 4.8 µM | 64.5% |
| C=CCC1(C(C)CCC)C(=O)NC(=O)NC1=O (configuration not stated) | – | 4.4% |
| CC(=O)Nc1ccc(OCC(O)CNC(C)C)cc1 (configuration not stated) | – | 8.4% |
| CC(C)(C)NCC(O)COc1cccc2c1CCCC2=O (configuration not stated) | – | 27.3% |
| CC(C)(C)NC[C@H](O)COc1nsnc1N1CCOCC1 | – | 8% |
| CC(C)CCC[C@@H](C)[C@H]1CC[C@H]2[C@@H]3CC=C4C[C@@H](O)CC[C@]4(C)[C@H]3CC[C@]12C | – | 3.3% |
| CC(C)NCC(O)c1ccc([N+](=O)[O-])cc1 (configuration not stated) | – | 7.9% |
| CC(C)[C@@]1(O)[C@@H](OC(=O)c2cc[nH]c2)[C@@]2(O)[C@]3(C)C[C@@]4(O)O[C@@]5([C@H](O)[C@@H](C)CC[C@]35O)[C@@]2(O)[C@@]41C | – | 0% |
| CC/C(=C(/CC)c1ccc(O)cc1)c1ccc(O)cc1 | – | 30.1% |
| CCC1(c2ccccc2)C(=O)NC(=O)NC1=O | – | 5.4% |
| CCCCNc1ccc(C(=O)OCCN(C)C)cc1 | – | 72% |
| CCCCOc1cc(CC2CNC(=O)N2)ccc1OC (configuration not stated) | – | 14.1% |

| Compound | IC50 [1] | inhibition [2] |
| --- | --- | --- |
| CC[N+](CC)(CC)CC | – | 1.4% |
| CN(C)C/C=C(/c1ccc(Br)cc1)c1cccnc1 | – | 34.6% |
| CN(C)CCCn1c2c(c3ccccc31)CCCCCC2 | – | 42.4% |
| COC(=O)C1=C(C)NC(C)=C(C(=O)OC)C1c1ccccc1[N+](=O)[O-] | – | 26% |
| COC(=O)[C@H]1[C@H]2C[C@H]3c4[nH]c5ccccc5c4CCN3C[C@@H]2CC[C@@H]1O | – | 33.7% |
| COC(=O)[C@H]1[C@H]2C[C@H]3c4[nH]c5ccccc5c4CCN3C[C@H]2CC[C@@H]1O | – | 13.1% |
| COc1cc2c(cc1OC)-c1c/c(=N\c3c(C)cc(C)cc3C)n(C)c(=O)n1CC2 | – | 17.4% |
| COc1cc2c3cc1Oc1cc(ccc1O)C[C@@H]1c4c(cc(OC)c(O)c4Oc4ccc(cc4)C[C@@H]3N(C)CC2)CC[N+]1(C)C | – | 3% |
| COc1ccc(CCN(C)CCCC(C#N)(c2ccc(OC)c(OC)c2)C(C)C)cc1OC (configuration not stated) | – | 74.4% |
| COc1ccc(CN(CCN(C)C)c2ccccn2)cc1 | – | 44.5% |
| COc1ccc2c3c1O[C@H]1[C@@H](O)C=C[C@H]4[C@@H](C2)N(C)CC[C@@]341 | – | 5.7% |
| C[C@H](Cc1ccccc1)Nc1ncnc2c1ncn2[C@@H]1O[C@H](CO)[C@@H](O)[C@H]1O | – | 2.2% |
| Cn1c(=O)c2nc(-c3ccccc3)[nH]c2n(C)c1=O | – | 10.9% |
| NC(=O)N1c2ccccc2C=Cc2ccccc21 | – | 1.6% |
| NCC(CC(=O)O)c1ccc(Cl)cc1 (configuration not stated) | – | 6.2% |
| NC[C@H](CC(=O)O)c1ccc(Cl)cc1 | – | 11.7% |
| O=C(CCCN1CCC(O)(c2ccc(Cl)cc2)CC1)c1ccc(F)cc1 | – | 85.5% |
| O=C(O)c1ccccc1Nc1cccc(C(F)(F)F)c1 | – | 26.7% |
| O=C1NC(=O)C(c2ccccc2)(c2ccccc2)N1 | – | 18.5% |
| CCN(CC)CCCN1C(=O)CC2(CCCc3ccccc32)C1=O (racemic; form 1) [listing 1 of 2 here] | 94 µM | – |
| CCN(CC)CCCN1C(=O)CC2(CCCc3ccccc32)C1=O (racemic; form 1) [listing 2 of 2 here] | – | 25.7% |
| CCN(CC)CCCN1C(=O)CC2(CCCc3ccccc32)C1=O (racemic; form 2) [listing 1 of 2 here] | 12 µM | – |

| Compound | IC50 [1] | inhibition [2] |
| --- | --- | --- |
| CCN(CC)CCCN1C(=O)CC2(CCCc3ccccc32)C1=O (racemic; form 2) [listing 2 of 2 here] | – | 54.1% |
| CN(C)CCC=C1c2ccccc2CCc2ccccc21 [AMITRIPTYLINE] | < 10 µM | 73.8% |
| OC(c1ccccc1)(c1ccccc1)C1CCNCC1 [AZACYCLONOL] | 14 µM | 43.2% |
| CCCCOc1cc(C(=O)OCCN(CC)CC)ccc1N [BENOXINATE] | 2.9 µM | 73.4% |
| CC(C)COCC(CN(Cc1ccccc1)c1ccccc1)N1CCCC1 (configuration not stated) [BEPRIDIL] | 0.84 µM | 96.2% |
| OC(CCN1CCCCC1)(c1ccccc1)C1CC2C=CC1C2 (configuration not stated) [BIPERIDEN] | < 10 µM | 62.9% |
| CCCCN1CCCCC1C(=O)Nc1c(C)cccc1C (configuration not stated) [BUPIVACAINE] | – | 63.4% |
| CCCCN(CCCC)CCCOC(=O)c1ccc(N)cc1 [BUTACAINE] | 2.7 µM | 75.3% |
| COc1ccc(OC)c(C(O)C(C)NC(C)(C)C)c1 (configuration not stated) [BUTOXAMINE] | 27 µM | 26.8% |
| Cn1c(=O)c2c(ncn2C)n(C)c1=O [CAFFEINE] | 660 µM | 9.7% |
| C[N+](C)(CC(=O)Nc1ccccc1)CC(=O)Nc1ccccc1.[Cl-] [CARCAINIUM CHLORIDE] | 3.9 µM | 71.6% |
| CN(C)CCC(c1ccc(Cl)cc1)c1ccccn1 (configuration not stated) [CHLORPHENIRAMINE] | 10 µM | 49.7% |
| CN(C)CCCN1c2ccccc2Sc2ccc(Cl)cc21 [CHLORPROMAZINE] | 4.3 µM | 72.2% |
| CN(C)CC/C=C1/c2ccccc2Sc2ccc(Cl)cc21 [CHLORPROTHIXENE] | < 10 µM | 55.2% |
| CN(C)CCCN1c2ccccc2CCc2ccc(Cl)cc21 [CLOMIPRAMINE] | < 10 µM | 76.6% |
| CC1CCCCN1CCCOC(=O)c1ccc(OC2CCCCC2)cc1 (configuration not stated) [CYCLOMETHYCAINE] | 2 µM | 81.9% |
| CN1CCC(=C2c3ccccc3C=Cc3ccccc32)CC1 [CYPROHEPTADINE] | 1 µM | 83% |
| CNCCCN1c2ccccc2CCc2ccccc21 [DESIPRAMINE] | 2.4 µM | 80.3% |
| CC(C)NC[C@@H](O)COc1cccc2ccccc12 [DEXPROPRANOLOL] | 10 µM | 50% |
| CN1CC[C@@]23CCCC[C@@H]2[C@@H]1Cc1ccc(O)cc13 [DEXTRORPHAN] | 18 µM | 38.2% |
| CCCCOc1cc(C(=O)NCCN(CC)CC)c2ccccc2n1 [DIBUCAINE] | – | 77.4% |
| CC(C)NCC(O)c1ccc(Cl)c(Cl)c1 (configuration not stated) [DICHLOROISOPROTERENOL] | < 10 µM | 53% |

| Compound | IC50 [1] | inhibition [2] |
| --- | --- | --- |
| CCN(CC)CCOC(=O)C1(C2CCCCC2)CCCCC1 [DICYCLOMINE] | 28 µM | 75% |
| COc1cc(C(=O)OCCCN2CCCN(CCCOC(=O)c3cc(OC)c(OC)c(OC)c3)CC2)cc(OC)c1OC [DILAZEP] | 0.6 µM | 99.3% |
| CCCCc1cc2ccccc2c(OCCN(C)C)n1 [DIMETHISOQUIN] | 3.4 µM | 73.4% |
| O=C(Nc1ccccc1)OCC(CN1CCCCC1)OC(=O)Nc1ccccc1 (configuration not stated) [DIPERODON] | 1.3 µM | 87.8% |
| OC(CCCN1CCCCC1)(c1ccccc1)c1ccccc1 [DIPHENIDOL] | 3.4 µM | 65.1% |
| CN(C)CCC=C1c2ccccc2COc2ccccc21 [DOXEPIN] | < 10 µM | 67.7% |
| CCCN(CC)C(CC)C(=O)Nc1c(C)cccc1C (configuration not stated) [ETIDOCAINE] | – | 73.2% |
| CCOC(=O)C1=C(C)NC(C)=C(C(=O)OC)C1c1cccc(Cl)c1Cl (configuration not stated) [FELODIPINE] | 37 µM | 20.1% |
| CN(C)C(=O)C(CCN1CCC(O)(c2ccc(Cl)c(C(F)(F)F)c2)CC1)(c1ccccc1)c1ccccc1 [FLUPERAMIDE] | 0.28 µM | 100% |
| OCCN1CCN(CCCN2c3ccccc3Sc3ccc(C(F)(F)F)cc32)CC1 [FLUPHENAZINE] | 3.7 µM | 72.8% |
| COc1ccc(CCN(C)CCCC(C#N)(c2cc(OC)c(OC)c(OC)c2)C(C)C)cc1OC (configuration not stated) [GALLOPAMIL] | 3.6 µM | 67.1% |
| COc1cc(C(=O)OCCCN(C)CCN(C)CCCOC(=O)c2cc(OC)c(OC)c(OC)c2)cc(OC)c1OC [HEXOBENDINE] | 1.4 µM | 77.2% |
| CC(CNC1CCCCC1)OC(=O)c1ccccc1 (configuration not stated) [HEXYLCAINE] | 7 µM | 54.9% |
| OCCOCCN1CCN(C(c2ccccc2)c2ccc(Cl)cc2)CC1 (configuration not stated) [HYDROXYZINE] | < 10 µM | 73.9% |
| CN(C)CCCN1c2ccccc2CCc2ccccc21 [IMIPRAMINE] | 3.6 µM | 72.7% |
| CC(C)Cn1c(=O)n(C)c(=O)c2nc[nH]c21 [ISOBUTYLMETHYLXANTHINE] | 1.8 µM | 0.9% |
| CC(C)NC[C@H](O)COc1cccc2ccccc12 [LEVOPROPRANOLOL] | 13 µM | 42.6% |
| C=C[C@H]1CN2CC[C@H]1C[C@@H]2[C@@H](O)c1ccnc2ccc(OC)cc12 [QUINIDINE] | – | 74.1% |
| C=C[C@H]1CN2CC[C@H]1C[C@H]2[C@H](O)c1ccnc2ccc(OC)cc12 [QUININE] | – | 69.3% |
| O=C(CCCN1CCC2(CC1)C(=O)NCN2c1ccccc1)c1ccc(F)cc1 [SPIPERONE] | – | 98.7% |
| (-)-BUTACLAMOL | – | 87.1% |
